Values quoted from earlier work as cited in patent EP0268927A2, “Resin-coated, non-sorptive granular, pesticidal compositions and method for the preparation thereof” (priority 1986, dated 1988).

Tested on: rats
Conditions: technical grade

In the case of `CCOP(=S)(OCC)SCSCC` [phorate, 0,0-diethyl-S-(ethylthiomethyl)phosphorodithioate], the “acute oral LD50 value in rats” value is given as 1.6-3.7 mg technical/kg.
